Laboratory results taken from patent US20220016241A1, “COMPOSITIONS AND METHODS FOR REDUCING ANTIGEN-SPECIFIC IMMUNOGENICITY” (The Research Foundation for The State University of New York, priority 2013, published 2022).

Assays:
[1] = tested on: anti-GAA antibody titers; test: Effect of OPLS on immunogenicity of GAA protein; format: in vivo, mice; settings: 5 mg dose with 1 μg GAA, 4 weekly s.c., 2 week rest
Protocol: Materials and Methods: GAA Source: Full length recombinant rhGAA was produced in Human Kidney Embryo Cells for our use by Creative Biomart (Shirley, N.Y.); OPLS Source: Sigma-Aldrich (St. Louis, Mo.). n=8 animals/group were immunized with 4 weekly s.c. injections of 1 μg of GAA in 100 μl of either sterile TRIS for the free group or in 5 mg OPLS in sterile TRIS for the OPLS-GAA group. A group of 8 mice will receive the same dose of CBrhGAA in 5 mg O-phospho-D-serine (OPDS) solution as a negative control. After a 2 week rest period, a blood sample from the saphenous vein will be collected. Samples were stored at −80° C. until analysis. These samples were then analyzed for anti-GAA Ab titers. Anti-GAA antibody titers were measured as follows: ELISA plate (maxisorp, NUNC) was coated with 50 μl of 5 μg/ml of sterile rhGAA in sodium carbonate-bicarbonate buffer pH =9.6. The plate was incubated overnight at 4° C. The plate was washed six times with PBS containing 0.05% Tween 20 (PBS-T, 250 μl/well) using an automated plate washer. The plate was blocked with PBS containing 1% BSA (300 μl/well) as the block buffer for 2 hr at 37° C. […] The reaction was stopped with 2 N sulfuric acid and read immediately at 450 nm using a micro-plate reader. The titer values are quantitated using a statistical endpoint method as described by Frey et al. Control plasma samples were run on each plate. […]

[2] = tested on: anti-Ova antibody titers; test: Effect of OPLS on immunogenicity of ovalbumin after SC administration; format: in vivo, SW mice; settings: 5 mg OPLS with 1 μg Ova s.c.
Protocol: Methods: 14 SW mice between 6 and 8 weeks of age were divided into 2 groups: group one received 1 μg OVA SC in the abdominal region. Group two received 1 μg OVA/5 mg OPLS SC in the abdominal region. This treatment was given one day 1, 8, 10 and 12. Three days after the last injection the animals were sacrificed. Blood was centrifuged at 7500 rpm for 5 min at 4° C. Plasma was then removed and stored at -80° C. until analysis Titers values were obtained using an anti-Ova IgG […] analysis kit as per the manufacturers instruction (alphadiagnostic international). Statistics was done on the arithmetic mean of the log transformed data, graphs are reported as geometric means. Non-responders were given the value of the plate specific factor for uniformity.

[3] = molecular target: T1, FVIII (Homo sapiens, UniProt P00451); test: Binding of OPLS to FVIII by fluorescence spectroscopy
T1 construct: Full length recombinant human FVIII (Baxter Biosciences, Carlsbad, Calif.) was obtained as a gift; purchased Baxter Biosciences (gift from the Western New York Hemophilia Foundation)
Protocol: (§1) The binding of OPLS to several therapeutic proteins was evaluated using fluorescence spectroscopy (FIG. 2).

[4] = tested on: TGF-β; test: Cytokine profile of BMDCs in vitro, TGF-β ELISA; format: cell-based, HA mice; settings: 1 μg/ml FVIII with 0-50 mM OPLS, 48 hours, n=4
Protocol: Generation of bone marrow derived dendritic cells (BMDC): Bone marrow was isolated from 6 to 8 week old naïve HA. Briefly, bone marrow was cultured in RPMI media supplemented with […] (low endotoxin), 2-mercaptoethanol, Pen/Strep and […] GMCSF. Media was changed on days 3, 6 and 8 of culture and DCs were used on day 9. BMDC are then harvested and used as needed. To verify the differentiation of bone marrow cells into DCs, CD11c surface expression was confirmed by flow cytometry using anti-CD11c-FITC antibody with appropriate isotope controls.
Effects of OPLS on cytokine profile of BMDCs in vitro: The effects of OPLS on cytokine secretion by dendritic cells were investigated. On day 9 BMDCs, generated as above, were treated with FVIII as an antigen in the presence of increasing dose of OPLS. Changes in production of pro-inflammatory cytokines TNF-α and IL12p70 as well as the regulatory cytokine TGF-β were monitored as a function of dose. BMDCs were exposed to 1 μg/ml FVIII with increasing dose of OPLS (0, 0.5, 1, 10, 25, 50 mM). 1 M stock of OPLS was prepared by adding the appropriate amount of OPLS directly to RPMI media, and pH was adjusted using sterile 3N and 1N NaOH. […] TGF-β, TNF-α and IL-12p70 concentrations were determined using standard ELISA (R&D System Inc. Minneapolis, Minn., USA or Invitrogen […], Calif.).

[5] = Plasma chemistry markers after 21 daily doses of OPLS; format: in vivo, rhesus macaques; settings: 21 daily doses of 25 mg/kg, days 0, 8, 22
Protocol: FIG. 24. Effect of 21 daily doses of 25 mg/kg OPLS on plasma chemistry markers of rhesus macaques. Samples were drawn from the animals at baseline (day 0), at an intermediate time point during treatment (day 8) and 1 day after the termination of dosing (day 22).

[6] = molecular target: T2, GAA (Homo sapiens, UniProt P10253); test: Binding of OPLS to GAA by fluorescence spectroscopy; settings: spectroscopic titration
T2 construct: Full length recombinant rhGAA was produced in Human Kidney Embryo Cells for our use by Creative Biomart; purchased Creative Biomart (Shirley, N.Y.); host or cells: Human Kidney Embryo Cells
Protocol: as §1

T1 sequence (P00451 20-2351): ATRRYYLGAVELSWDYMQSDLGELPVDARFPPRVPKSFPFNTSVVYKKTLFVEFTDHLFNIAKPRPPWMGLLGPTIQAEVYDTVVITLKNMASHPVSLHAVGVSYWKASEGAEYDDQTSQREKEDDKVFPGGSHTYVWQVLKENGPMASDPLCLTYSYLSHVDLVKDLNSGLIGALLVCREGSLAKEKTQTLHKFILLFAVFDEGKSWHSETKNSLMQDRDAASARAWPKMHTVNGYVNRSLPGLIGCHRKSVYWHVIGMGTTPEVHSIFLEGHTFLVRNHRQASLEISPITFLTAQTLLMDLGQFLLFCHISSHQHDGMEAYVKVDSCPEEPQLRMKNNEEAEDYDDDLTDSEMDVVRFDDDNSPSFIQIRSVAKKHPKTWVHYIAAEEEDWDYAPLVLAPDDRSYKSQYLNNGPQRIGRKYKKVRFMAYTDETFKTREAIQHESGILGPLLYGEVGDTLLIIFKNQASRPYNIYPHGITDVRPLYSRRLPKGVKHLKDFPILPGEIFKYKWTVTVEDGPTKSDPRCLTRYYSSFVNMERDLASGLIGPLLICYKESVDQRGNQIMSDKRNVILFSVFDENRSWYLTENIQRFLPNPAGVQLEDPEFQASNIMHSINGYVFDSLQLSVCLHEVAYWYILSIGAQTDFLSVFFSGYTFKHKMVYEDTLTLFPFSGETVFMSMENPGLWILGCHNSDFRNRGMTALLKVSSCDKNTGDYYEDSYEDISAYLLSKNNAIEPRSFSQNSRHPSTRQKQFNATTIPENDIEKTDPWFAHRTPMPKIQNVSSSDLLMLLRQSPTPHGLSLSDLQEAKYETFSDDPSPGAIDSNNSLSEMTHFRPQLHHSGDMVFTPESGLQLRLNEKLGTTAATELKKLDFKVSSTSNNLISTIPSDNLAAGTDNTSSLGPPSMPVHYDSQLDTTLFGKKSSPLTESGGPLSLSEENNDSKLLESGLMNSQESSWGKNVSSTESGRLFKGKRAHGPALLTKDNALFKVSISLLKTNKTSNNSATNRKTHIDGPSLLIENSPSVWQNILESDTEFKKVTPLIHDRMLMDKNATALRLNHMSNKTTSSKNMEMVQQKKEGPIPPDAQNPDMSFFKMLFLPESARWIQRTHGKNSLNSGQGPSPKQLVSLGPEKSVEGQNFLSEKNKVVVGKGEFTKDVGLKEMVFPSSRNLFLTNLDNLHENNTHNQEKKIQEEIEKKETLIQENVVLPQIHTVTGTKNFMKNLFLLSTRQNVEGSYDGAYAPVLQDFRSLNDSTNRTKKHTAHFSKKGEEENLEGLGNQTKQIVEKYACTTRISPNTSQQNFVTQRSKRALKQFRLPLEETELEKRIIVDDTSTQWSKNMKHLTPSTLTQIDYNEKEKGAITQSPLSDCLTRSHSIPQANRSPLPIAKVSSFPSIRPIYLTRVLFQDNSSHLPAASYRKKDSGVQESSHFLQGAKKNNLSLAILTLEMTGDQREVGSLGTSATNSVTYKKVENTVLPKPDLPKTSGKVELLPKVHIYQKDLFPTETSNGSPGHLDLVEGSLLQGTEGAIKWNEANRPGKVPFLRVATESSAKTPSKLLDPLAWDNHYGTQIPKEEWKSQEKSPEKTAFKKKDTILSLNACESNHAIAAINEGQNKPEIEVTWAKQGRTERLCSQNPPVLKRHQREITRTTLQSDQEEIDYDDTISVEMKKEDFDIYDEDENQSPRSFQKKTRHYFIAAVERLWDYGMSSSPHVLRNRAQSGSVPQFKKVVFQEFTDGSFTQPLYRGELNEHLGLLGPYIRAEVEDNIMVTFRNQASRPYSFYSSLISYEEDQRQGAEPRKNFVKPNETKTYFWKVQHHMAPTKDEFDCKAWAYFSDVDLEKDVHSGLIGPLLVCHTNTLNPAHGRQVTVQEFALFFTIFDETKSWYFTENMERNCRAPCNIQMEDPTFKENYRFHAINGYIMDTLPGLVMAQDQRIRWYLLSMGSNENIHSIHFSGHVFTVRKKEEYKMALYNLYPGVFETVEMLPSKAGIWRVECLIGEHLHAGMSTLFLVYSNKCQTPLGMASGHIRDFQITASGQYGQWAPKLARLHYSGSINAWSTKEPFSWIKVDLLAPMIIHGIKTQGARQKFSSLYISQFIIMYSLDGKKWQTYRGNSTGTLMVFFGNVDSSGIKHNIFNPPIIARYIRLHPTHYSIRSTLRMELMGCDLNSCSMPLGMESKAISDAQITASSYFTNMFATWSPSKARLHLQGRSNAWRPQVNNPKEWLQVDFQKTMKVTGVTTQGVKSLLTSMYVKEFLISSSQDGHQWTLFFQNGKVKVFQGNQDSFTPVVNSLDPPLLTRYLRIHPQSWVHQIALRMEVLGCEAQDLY
T1 sequence (P00451 20-1667 partner limits assumed): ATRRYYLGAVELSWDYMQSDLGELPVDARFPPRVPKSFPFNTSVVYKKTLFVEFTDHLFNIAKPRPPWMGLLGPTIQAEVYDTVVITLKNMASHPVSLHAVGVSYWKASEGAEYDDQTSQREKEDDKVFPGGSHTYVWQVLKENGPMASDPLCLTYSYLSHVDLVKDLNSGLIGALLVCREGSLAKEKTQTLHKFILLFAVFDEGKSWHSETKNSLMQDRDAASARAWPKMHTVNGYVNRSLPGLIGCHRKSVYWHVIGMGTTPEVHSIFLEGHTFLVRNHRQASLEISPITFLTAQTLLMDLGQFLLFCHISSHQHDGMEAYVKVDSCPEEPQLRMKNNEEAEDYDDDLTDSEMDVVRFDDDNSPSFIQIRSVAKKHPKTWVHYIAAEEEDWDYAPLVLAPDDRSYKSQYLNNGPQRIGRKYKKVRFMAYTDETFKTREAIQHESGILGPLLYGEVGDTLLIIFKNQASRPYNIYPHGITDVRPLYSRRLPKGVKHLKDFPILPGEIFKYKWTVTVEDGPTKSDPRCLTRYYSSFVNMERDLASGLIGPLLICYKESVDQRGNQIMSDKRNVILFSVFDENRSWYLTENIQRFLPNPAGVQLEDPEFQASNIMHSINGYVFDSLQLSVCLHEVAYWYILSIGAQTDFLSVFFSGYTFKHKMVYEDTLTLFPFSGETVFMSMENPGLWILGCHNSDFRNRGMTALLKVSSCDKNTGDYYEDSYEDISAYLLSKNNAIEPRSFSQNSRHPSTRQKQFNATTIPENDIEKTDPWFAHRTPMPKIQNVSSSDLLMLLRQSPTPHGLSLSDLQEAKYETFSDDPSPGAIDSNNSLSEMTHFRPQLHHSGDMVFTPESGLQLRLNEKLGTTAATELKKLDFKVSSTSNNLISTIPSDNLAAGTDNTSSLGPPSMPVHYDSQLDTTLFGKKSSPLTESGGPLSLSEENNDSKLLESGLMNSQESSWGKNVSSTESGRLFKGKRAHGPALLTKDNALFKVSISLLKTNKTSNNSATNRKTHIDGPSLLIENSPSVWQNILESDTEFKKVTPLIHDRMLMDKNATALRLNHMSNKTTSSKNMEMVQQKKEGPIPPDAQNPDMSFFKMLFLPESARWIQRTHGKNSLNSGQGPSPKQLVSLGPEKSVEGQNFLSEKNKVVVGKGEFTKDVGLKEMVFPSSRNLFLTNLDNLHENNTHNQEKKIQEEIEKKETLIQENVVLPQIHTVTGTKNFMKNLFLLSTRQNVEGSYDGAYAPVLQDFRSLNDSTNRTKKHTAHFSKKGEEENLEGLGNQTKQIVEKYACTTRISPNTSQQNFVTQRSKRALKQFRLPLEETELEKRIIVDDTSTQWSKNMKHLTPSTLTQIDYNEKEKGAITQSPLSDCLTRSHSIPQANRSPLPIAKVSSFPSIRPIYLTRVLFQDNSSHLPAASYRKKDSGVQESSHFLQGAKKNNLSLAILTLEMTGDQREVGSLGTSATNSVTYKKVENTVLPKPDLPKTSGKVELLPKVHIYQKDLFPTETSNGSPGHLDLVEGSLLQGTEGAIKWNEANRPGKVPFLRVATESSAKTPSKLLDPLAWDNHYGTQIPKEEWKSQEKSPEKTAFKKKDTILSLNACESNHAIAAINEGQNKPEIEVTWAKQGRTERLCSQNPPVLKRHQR

## N[C@@H](COP(=O)(O)O)C(=O)O [OPLS, O-Phospho-L-Serine]
[1]
  Anti-GAA antibody titers vs GAA alone: lower
[2]
  Anti-Ova antibody titers vs Ova alone: lower
[3]; fluorescence titration, FIG. 2, read-out: Dissociation constant (Kd) of OPLS binding to FVIII
  Kd: 8.4 µM
[3]; spectroscopic titration
  Binding affinity of FVIII for OPLS: highest affinity
[4]
  TGF-β production by BMDC: dose dependent increase
[5]
  Impact on renal and hepatic function (plasma chemistry markers): no impact
[6]
  Binding affinity of GAA for OPLS: lowest affinity
